According to US6413997B1, “3-(substituted phenyl)-5-(substituted heterocyclyl)-1,2,4-triazole compounds” (priority 1998, dated 2002):

Key:
Type in all cases: in vivo
[1] = test system: cotton aphids (aphis gossypii); test: Insecticidal test for cotton aphid, foliar spray on infested squash cotyledons; conditions: 50 ppm spray, graded after 3 days, versus untreated check
Method: Insecticidal Test for Cotton Aphid (Aphis gossypii)
To prepare spray solutions, 2 mg of each test compound was dissolved into 2 mL of a 90:10 acetone:ethanol solvent. This 2 mL of chemical solution was added to 38 mL of water containing 0.05% Tween 20 surfactant to produce a 50 ppm spray solution.
Squash cotyledons were infested with cotton aphid (all life stages16-20 hours prior to application of spray solution. The solution was sprayed on both sides of each infested squash cotyledon (0.5 mL×2 each side with a sweeping action using a total of 2 mL of spray solution. The plants were allowed to air dry and held for 3 days in a controlled room at 26° C. and 40% RH after which time the test was graded. Grading was by actual count using a dissecting microscope and comparison of test counts to the untreated check. Results are given in Table 1 as percent control based on population reduction versus the untreated.

[2] = test system: twospotted spider mite (tetranychus uriticae); test: Two-spotted spider mite test, ovicide method on cotton leaf discs; conditions: leaf disc dip, 6 days, hatched larvae versus untreated discs
Method: Insecticidal Test for Two-spotted Spider Mite (Tetranychus urticae)
Ten adult female two-spotted spider mites were placed on eight 2.2 cm leaf discs of cotton leaf, allowed to oviposit over 24 hours, and thereafter removed. The leaf discs were immersed in 100 ppm test solutions for 3 seconds, then allowed to dry with sixteen discs left untreated as a negative control. Discs were placed on an agar substrate and held at 24° C. and 90% relative humidity for 6 days.

[3] = test system: sweetpotato whitefly (bemisia tabaci); test: Sweetpotato whitefly test on cotton plants under laboratory conditions; conditions: 800 ppm (table footnote), spray on cotton plants with eggs, 21 days, spent pupal cases versus solution-only plants
Method: Evaluation of Tests Compounds on Sweetpotato Whitefly (Bemisia tabacia) Under Laboratory Conditions
Four mg of each test compound was dissolved by adding 5 ml of a 90:10 acetone:ethanol solvent mixture to the vial containing the sample compound. […]
Five-week-old cotton plants reared in a greenhouse were stripped of all foliage except for the two uppermost true leaves that were greater than 5 cm in diameter. These plants were then placed into a laboratory colony of whiteflies for three days for oviposition by the colony females. All whiteflies were then removed from the test plants with pressurized air. The spray solution was then applied to the test plants with a hand-held syringe fitted with hollow cone nozzle. One mL spray solution was applied to each leaf top and bottom for a total of 4 mL per plant. Four replications of each test compound utilized a total of 16 mL spray solution. Plants were air dried and then placed in a holding chamber (26° C. and 40% RH for 21 days. Compound efficacy was evaluated by counting, under a dissecting microscope, the number of spent pupal cases per leaf. A spent pupal case represents a whitefly egg that has undergone full development to achieve adult status, thus indicating lack of control.
Percent control based on reduction of spent pupal cases of a test compound compared to solution-only (no test compound sprayed plants is reported in Table 1.

SMILES	CA: activity at 50 ppm against cotton aphids (rating of % mortality / percent control) [1]	TSSM: activity at 100 ppm against twospotted spider mite (rating of % mortality / percent control) [2]	WF: activity at 800 ppm against sweetpotato whitefly (rating of % mortality / percent control) [3]	mortality at 50 ppm ([1]; Aphis gossypii, foliar, 72 h, read-out: CA: activity at 50 ppm against cotton aphids (rating of % mortality / percent control)) [%]	mortality at 100 ppm ([2]; foliar, 144 h, read-out: TSSM: activity at 100 ppm against twospotted spider mite (rating of % mortality / percent control)) [%]
Cc1nc(Cl)sc1-c1nc(-c2c(F)cccc2Cl)nn1C [Compound 40]	A (91-100)	A (91-100)	–	–	–
Cc1cc(-c2nc(-c3c(F)cccc3F)nn2C)nn1C [Compound 71]	A (91-100)	G (Inactive)	G (Inactive)	–	–
Cc1ncsc1-c1nc(-c2c(F)cccc2F)nn1C [Compound 37]	B (81-90)	A (91-100)	–	–	–
Cc1nc(-c2ccc(Cl)cc2)sc1-c1nc(-c2c(F)cccc2F)nn1C [Compound 90]	–	A (91-100)	–	–	–
Cc1cc(-c2nc(-c3c(F)cccc3Cl)nn2C)nn1C [Compound 72]	A (91-100)	C (71-80)	G (Inactive)	–	–
Cn1nc(-c2c(F)cccc2Cl)nc1-c1snc(-c2ccc(Cl)cc2)c1Br [Compound 12]	A (91-100)	A (91-100)	G (Inactive)	–	–
Cn1nc(-c2c(F)cccc2F)nc1-c1snnc1-c1ccccc1 [Compound 58]	A (91-100)	C (71-80)	G (Inactive)	–	–
Cc1nc(-c2nc(-c3c(F)cccc3F)nn2C)cs1 [Compound 48]	D (61-70)	G (Inactive)	–	–	–
Cn1nc(-c2c(F)cccc2Cl)nc1-c1c(C(F)(F)F)nn(C)c1Cl [Compound 77]	–	A (91-100)	–	–	–
Cc1nc(Br)sc1-c1nc(-c2c(F)cccc2F)nn1C [Compound 41]	A (91-100)	A (91-100)	G (Inactive)	–	–
Cn1nc(-c2c(F)cccc2F)nc1-c1cnn(C)c1[N+](=O)[O-] [Compound 78]	A (91-100)	A (91-100)	G (Inactive)	–	–
Cn1nc(-c2c(F)cccc2F)nc1-c1cc(C(C)(C)C)no1 [Compound 30]	D (61-70)	G (Inactive)	–	–	–
Cc1nc(-c2nc(-c3c(F)cccc3Cl)nn2C)cs1 [Compound 49]	–	C (71-80)	–	–	–
CCCc1c(-c2nc(-c3c(F)cccc3F)nn2C)cnn1-c1ccc(Cl)cc1 [Compound 80]	–	G (Inactive)	–	–	–
Cc1nc(C(F)(F)F)sc1-c1nc(-c2c(F)cccc2F)nn1C [Compound 91]	C (71-80)	–	–	–	–
Cc1cc(-c2nc(-c3c(F)cccc3F)nn2C)n(C)n1 [Compound 62]	A (91-100)	G (Inactive)	E (51-60)	–	–
Cn1nc(-c2c(F)cccc2F)nc1-c1snc(-c2ccc([N+](=O)[O-])cc2)c1Br [Compound 15]	–	G (Inactive)	G (Inactive)	–	–

SMILES	CA: activity at 50 ppm against cotton aphids (rating of % mortality / percent control) [1]	TSSM: activity at 100 ppm against twospotted spider mite (rating of % mortality / percent control) [2]	WF: activity at 800 ppm against sweetpotato whitefly (rating of % mortality / percent control) [3]	mortality at 50 ppm ([1]; Aphis gossypii, foliar, 72 h, read-out: CA: activity at 50 ppm against cotton aphids (rating of % mortality / percent control)) [%]	mortality at 100 ppm ([2]; foliar, 144 h, read-out: TSSM: activity at 100 ppm against twospotted spider mite (rating of % mortality / percent control)) [%]
Cc1nc(-c2ccc(C(F)(F)F)cc2)sc1-c1nc(-c2c(F)cccc2F)nn1C [Compound 47]	D (61-70)	A (91-100)	G (Inactive)	–	–
Cn1nc(-c2c(F)cccc2F)nc1-c1sc(Cl)nc1Cl [Compound 42]	B (81-90)	A (91-100)	G (Inactive)	–	–
Cc1nn(C)c(Cl)c1-c1nc(-c2c(F)cccc2Cl)nn1C [Compound 76]	B (81-90)	A (91-100)	–	–	–
CCn1nc(C)cc1-c1nc(-c2c(F)cccc2F)nn1C [Compound 60]	B (81-90)	G (Inactive)	–	–	–
Cc1cc(-c2nc(-c3c(F)cccc3Cl)nn2C)n(C)n1 [Compound 63]	A (91-100)	G (Inactive)	–	–	–
Cn1nc(-c2c(F)cccc2F)nc1-c1snc(-c2ccccc2)c1Br [Compound 7]	B (81-90)	G (Inactive)	E (51-60)	–	–
Cn1nc(-c2c(F)cccc2Cl)nc1-c1snc(-c2ccccc2)c1Br [Compound 8]	B (81-90)	C (71-80)	G (Inactive)	–	–
Cc1nc(Cl)sc1-c1nc(-c2c(F)cccc2F)nn1C [Compound 39]	A (91-100)	A (91-100)	G (Inactive)	–	–
Cn1nc(-c2c(F)cccc2F)nc1-c1scnc1Cl [Compound 38]	A (91-100)	A (91-100)	G (Inactive)	–	–
CCn1nc(-c2nc(-c3c(F)cccc3Cl)nn2C)cc1C [Compound 74]	A (91-100)	–	–	–	–
Cn1nc(-c2c(F)cccc2F)nc1-c1cc(C(C)(C)C)nn1Cc1ccccc1 [Compound 70]	B (81-90)	G (Inactive)	E (51-60)	–	–
Cn1cc(Cl)c(-c2nc(-c3c(F)cccc3Cl)nn2C)n1 [Compound 75]	–	G (Inactive)	B (81-90)	–	–
Cn1nc(-c2c(F)cccc2F)nc1-c1cnn(-c2ccc(Cl)cc2)c1C(F)(F)F [Compound 79]	A (91-100)	G (Inactive)	G (Inactive)	–	–
Cn1nc(-c2c(F)cccc2F)nc1-c1cc(-c2ccc(Cl)cc2)ns1 [Compound 9]	E (51-60)	–	G (Inactive)	–	–
Cn1nc(-c2c(F)cccc2F)nc1-c1snc(-c2cccc(C(F)(F)F)c2)c1Br [Compound 16]	B (81-90)	G (Inactive)	–	–	–
Cc1cc(-c2nc(-c3c(F)cccc3F)nn2C)on1 [Compound 28]	–	G (Inactive)	B (81-90)	–	–
Cc1ncoc1-c1nc(-c2c(F)cccc2F)nn1C [Compound 55, 3-(2,6-Difluorophenyl)-5-(4-methyloxazol-5-yl)-1-methyl[1,2,4]triazole]	–	–	–	0 to 51	0 to 51
